Patent US20190151289A1, “Identification of Small Molecule Inhibitors of Jumonji AT-Rich Interactive Domain 1A (JARID1A) Histone Demethylase” (YALE UNIVERSITY, priority 2016, published 2019)
Like-named read-outs stand apart in the source and are kept apart here. Blank lines part the entries; values can stand above or below the compound they belong to.

Assays:
full-length FLAG-KDM5A = target: T1, full-length FLAG-KDM5A (Homo sapiens, UniProt P29375); test: AlphaScreen KDM5A demethylation assay (bio-H3K4me3 peptide); format: biochemical; conditions: for hit in KDM5A inhibitor screen: compounds at 20 μM, hit threshold ~30% inhibition
T1 construct: Sf21 insect cells were infected with baculovirus to express full-length FLAG-KDM5A; made in house; host or cells: Sf21 insect cells (baculovirus)
Method: (§1) Histone demethylase assays were performed using previously described methods (Sayegh et al., 2013, J. Biol. Chem. 9408-9417), with the exception of all enzyme reactions containing 125 μM α-KG. Enzymes were used at the following approximate concentrations in validation experiments, chosen based on their activity in AlphaScreen assays: 19 nM FLAG-KDM5A, 15 nM FLAG-KDM5B, 6 nM FLAG-KDM5C, 29 nM His-FLAG-KDM6A, and 16 nM FLAG-KDM6B. 24 nM FLAG-KDM5A was used for Km determination experiments. Reactions were carried out for 1 hour, or were stopped by addition of 30 mM EDTA every 5 minutes for determining enzyme kinetics. Km values were calculated using the Michaelis-Menten non-linear regression analysis on GraphPad Prism 6.0 software. The concentration of DMSO in demethylation reactions was 0.05%. For reactions with catalase, catalase (Sigma C30) or an equal volume of dilution buffer was added to the peptide-containing buffer before addition of the demethylase. The final concentration of catalase in the reactions was 0.01 mg/ml.
(§2) The AlphaScreen general IgG (protein A) detection kit from PerkinElmer Life Sciences was used as described previously (Sayegh et al., 2013, J. Biol. Chem. 9408-9417). The luminescence emission was recorded at 570 nm using the AlphaScreen optic module on a Pherastar (BMG Labtech) or Envision (PerkinElmer Life Sciences) microplate reader.
8,861 compounds from the ChemBridge MW-Set, ChemBridge DIVERSet, MicroSource Gen-Plus, MicroSource Pure Natural Products, NIH Clinical Collection, and Enzo Epigenetics libraries were screened for inhibition of FLAG-KDM5A demethylase activity. Compounds were dissolved in DMSO and added at 20 μM to 384-well white plates (Corning 3574) containing 64 nM bio-H3K4me3 peptide in demethylase buffer prior to addition of 13 nM FLAG-KDM5A. Hits were selected at a threshold of three standard deviations (˜30% inhibition). A counter-screen was performed with the hits to eliminate any non-specific compounds. For this, 20 μM compounds were added to 64 nM bio-H3K4me2 peptide in demethylase buffer with no enzyme. Any hits that interfered with the positive signal detection were eliminated. Dose-response curves were performed on selected hits using 0.1-11 μM of compound. Further validation of top hits was performed using 5 μM of each compound or a dose-response curve using 0.05-50 μM of the compound.
Fresh compounds were ordered to confirm identity. IC50 curves were generated for YUKA1 and YUKA2 using 0.05-50 μM compound in 1 hour reactions. IC50 values were calculated by log transformation and non-linear regression log (inhibitor) versus response (three parameters) using Graphpad Prism 6.0 software. Percent activity of KDM5A was calculated for each data point by subtracting the background (average H3K4me3 signal) and dividing by the average signal for the DMSO controls. α-KG competition tests were performed using 150 nM H3K4me3 peptide and 50 μM Fe(II).
AlphaScreen technology (Perkin Elmer) was utilized to perform a screen for small molecule inhibitors of KDM5A. The assay was comprised of two steps, a demethylation reaction followed by detection of the product. A biotinylated H3K4me3 peptide was used as substrate in the demethylation reaction with KDM5A in the presence or absence of small molecule inhibitors. The presence of peptide product (H3K4me1/2) was detected using a product-specific antibody and beads. For this, acceptor beads coated in protein A bound to the antibody, which recognized the peptide product. Donor beads coated in streptavidin bound biotin on the peptide substrate. […]

KDM5C = target: T2, KDM5C (Homo sapiens, UniProt P41229); test: AlphaScreen KDM5C demethylation assay; format: biochemical
T2 construct: FLAG; made in house
Method: as §1, §2

[1] = test system: H3K4 methylation in HeLa cells; test: Western blot of global H3K4 methylation, HeLa; format: cell-based, human; conditions: HeLa and MCF7 cell lines, western blot
Method: Sf21 insect cells were cultured at 27° C. in Grace's medium (Gibco) with 10% fetal bovine serum (FBS) and 1% penicillin/streptomycin. HeLa cells were cultured in DMEM (Gibco) with 10% FBS and 1% penicillin/streptomycin. BT474, MCF7, MDA-MB-231, PC9 and ZR-75-1 cells were cultured in RPMI 1640 (Gibco) with 10% FBS and 1% penicillin/streptomycin. MCF10A cells were cultured as using previously described methods (Sayegh et al., 2013, J. Biol. Chem. 9408-9417). All human cells were cultured at 37° C. and 5% carbon dioxide. HeLa and MCF7 cell lines were authenticated using short tandem repeat profiling performed at the DNA Analysis Facility on Science Hill at Yale University. All other human cell lines used were within 10 passages after being obtained from the American Type Culture Collection.
Cells were lysed using previously described methods (Lin et al., 2011, Proc. Natl. Acad. Sci. U.S.A. 108:13379-13386). Histones were separated by centrifugation, resuspended in Laemmeli buffer, and sonicated. Protein concentration of cell lysates was measured by Bradford assay. Samples in Laemmeli buffer were boiled 10 minutes at 95° C. and loaded onto 7% (whole cell lysates) or 18% (histones) SDS-PAGE gels. Membranes were blocked in 4% non-fat milk in Tris-buffered saline with 0.05% Tween (TBS-T) and incubated with primary antibodies in the same buffer or 5% bovine serum albumin in TBS-T overnight at 4° C. Membranes were incubated with secondary anti-rabbit or anti-mouse antibodies for one hour at room temperature. Blots were visualized by Thermo Scientific Pierce ECL Western Blotting Substrate (32106) or EMD Millipore Immobilon Western Chemiluminescent HRP Substrate (WBKLS0100) on film. Signal was quantified using ImageJ software.

[2] = inhibitors found by high throughput screening, read-out: KDM5A IC50

T1 sequence (P29375 whole entry): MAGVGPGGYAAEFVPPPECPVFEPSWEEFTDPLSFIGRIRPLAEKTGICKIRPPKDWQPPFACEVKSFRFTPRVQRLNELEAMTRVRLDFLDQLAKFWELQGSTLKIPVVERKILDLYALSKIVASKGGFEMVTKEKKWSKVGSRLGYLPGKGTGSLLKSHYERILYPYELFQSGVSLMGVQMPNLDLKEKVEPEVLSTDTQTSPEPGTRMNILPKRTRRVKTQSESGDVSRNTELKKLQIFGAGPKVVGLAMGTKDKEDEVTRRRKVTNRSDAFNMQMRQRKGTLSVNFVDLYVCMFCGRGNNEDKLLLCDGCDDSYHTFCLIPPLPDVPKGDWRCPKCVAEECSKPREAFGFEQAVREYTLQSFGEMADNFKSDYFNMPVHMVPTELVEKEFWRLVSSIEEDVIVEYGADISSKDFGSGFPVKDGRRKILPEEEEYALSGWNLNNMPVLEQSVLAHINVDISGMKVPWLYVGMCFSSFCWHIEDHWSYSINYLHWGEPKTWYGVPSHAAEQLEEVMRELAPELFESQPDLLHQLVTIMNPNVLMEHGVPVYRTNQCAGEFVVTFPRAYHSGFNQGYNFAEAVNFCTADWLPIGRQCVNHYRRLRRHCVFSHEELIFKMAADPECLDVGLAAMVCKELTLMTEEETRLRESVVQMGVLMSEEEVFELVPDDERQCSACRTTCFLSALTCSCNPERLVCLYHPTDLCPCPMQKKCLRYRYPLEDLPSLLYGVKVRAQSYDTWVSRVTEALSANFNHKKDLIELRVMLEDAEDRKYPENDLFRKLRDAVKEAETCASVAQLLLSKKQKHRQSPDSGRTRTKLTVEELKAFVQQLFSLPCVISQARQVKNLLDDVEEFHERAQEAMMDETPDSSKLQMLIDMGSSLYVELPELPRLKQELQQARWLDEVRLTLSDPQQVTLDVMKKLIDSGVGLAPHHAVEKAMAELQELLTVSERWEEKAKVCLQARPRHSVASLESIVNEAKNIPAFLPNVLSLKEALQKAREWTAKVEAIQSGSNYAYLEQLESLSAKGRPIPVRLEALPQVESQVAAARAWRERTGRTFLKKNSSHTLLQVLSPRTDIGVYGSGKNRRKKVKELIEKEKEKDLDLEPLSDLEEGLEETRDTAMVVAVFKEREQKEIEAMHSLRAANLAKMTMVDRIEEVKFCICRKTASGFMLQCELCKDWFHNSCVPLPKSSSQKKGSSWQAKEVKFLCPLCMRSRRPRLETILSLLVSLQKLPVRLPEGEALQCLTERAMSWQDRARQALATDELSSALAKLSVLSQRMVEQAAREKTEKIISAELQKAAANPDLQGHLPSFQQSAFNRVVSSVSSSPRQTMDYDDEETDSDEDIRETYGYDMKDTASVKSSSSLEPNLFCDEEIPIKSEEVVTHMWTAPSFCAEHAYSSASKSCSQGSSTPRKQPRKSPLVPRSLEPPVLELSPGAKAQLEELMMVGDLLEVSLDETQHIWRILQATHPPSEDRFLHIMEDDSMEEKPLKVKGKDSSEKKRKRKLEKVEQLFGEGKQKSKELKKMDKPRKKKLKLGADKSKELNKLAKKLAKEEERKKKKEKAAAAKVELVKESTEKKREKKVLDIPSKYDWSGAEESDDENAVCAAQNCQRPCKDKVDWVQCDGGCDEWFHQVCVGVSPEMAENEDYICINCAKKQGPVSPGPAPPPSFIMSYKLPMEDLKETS
T2 sequence (P41229 whole entry): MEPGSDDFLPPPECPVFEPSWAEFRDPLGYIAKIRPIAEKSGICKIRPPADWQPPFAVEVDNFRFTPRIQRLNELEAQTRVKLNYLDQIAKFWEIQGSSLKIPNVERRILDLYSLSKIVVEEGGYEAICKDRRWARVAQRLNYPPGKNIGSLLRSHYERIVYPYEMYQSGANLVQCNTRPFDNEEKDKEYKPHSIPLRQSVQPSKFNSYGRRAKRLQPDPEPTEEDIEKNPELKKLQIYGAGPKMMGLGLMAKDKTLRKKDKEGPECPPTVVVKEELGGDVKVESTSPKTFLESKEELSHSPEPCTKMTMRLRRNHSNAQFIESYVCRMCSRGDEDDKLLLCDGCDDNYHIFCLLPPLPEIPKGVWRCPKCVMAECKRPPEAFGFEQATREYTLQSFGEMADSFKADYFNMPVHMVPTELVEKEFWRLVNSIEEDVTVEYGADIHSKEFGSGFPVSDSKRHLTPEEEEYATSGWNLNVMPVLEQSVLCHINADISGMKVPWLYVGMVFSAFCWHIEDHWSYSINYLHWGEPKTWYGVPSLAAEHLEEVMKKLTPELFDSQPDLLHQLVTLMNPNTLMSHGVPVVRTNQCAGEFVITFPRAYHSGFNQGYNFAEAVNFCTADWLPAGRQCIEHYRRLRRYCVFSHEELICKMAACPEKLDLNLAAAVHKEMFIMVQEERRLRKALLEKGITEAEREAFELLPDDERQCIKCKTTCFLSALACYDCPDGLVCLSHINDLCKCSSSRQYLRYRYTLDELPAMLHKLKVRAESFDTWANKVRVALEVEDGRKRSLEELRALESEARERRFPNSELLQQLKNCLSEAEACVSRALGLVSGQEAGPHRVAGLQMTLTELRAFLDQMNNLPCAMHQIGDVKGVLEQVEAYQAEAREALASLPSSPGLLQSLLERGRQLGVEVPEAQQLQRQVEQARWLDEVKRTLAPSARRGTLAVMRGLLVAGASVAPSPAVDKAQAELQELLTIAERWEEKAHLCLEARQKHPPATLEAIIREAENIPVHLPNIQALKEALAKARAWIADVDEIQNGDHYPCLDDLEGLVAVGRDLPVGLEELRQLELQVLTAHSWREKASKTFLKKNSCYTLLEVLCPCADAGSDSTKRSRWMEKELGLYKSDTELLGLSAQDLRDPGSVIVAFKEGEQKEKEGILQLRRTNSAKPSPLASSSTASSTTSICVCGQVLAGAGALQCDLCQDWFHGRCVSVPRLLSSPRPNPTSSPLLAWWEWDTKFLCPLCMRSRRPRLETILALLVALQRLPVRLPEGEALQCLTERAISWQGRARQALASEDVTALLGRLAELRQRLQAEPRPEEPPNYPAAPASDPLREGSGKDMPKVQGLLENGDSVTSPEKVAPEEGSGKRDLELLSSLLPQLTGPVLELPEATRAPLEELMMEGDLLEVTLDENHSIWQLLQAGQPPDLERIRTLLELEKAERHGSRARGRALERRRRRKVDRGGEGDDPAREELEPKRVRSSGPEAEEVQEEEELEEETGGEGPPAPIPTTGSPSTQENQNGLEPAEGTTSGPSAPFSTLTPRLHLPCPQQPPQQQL

hit in KDM5A inhibitor screen (full-length FLAG-KDM5A): among the active hits in the screen
SMILES: O=C(O)/C=C/c1ccc(O)c(O)c1 [caffeic acid, reference compound]

IC50 (full-length FLAG-KDM5A; [2]): 169 nM
SMILES: CCCCSCCc1nnc(S)n1-c1ccccc1 [YU149596, 5-(2-(butylthio)ethyl)-4-phenyl-4H-1,2,4-triazole-3-thiol]

mode of KDM5A inhibition with respect to Fe(II) (full-length FLAG-KDM5A): uncompetitive with respect to Fe(II) | KDM5A enzyme inhibition at low Fe(II) (full-length FLAG-KDM5A; 5 μM Fe(II)): too weak to generate robust IC50 curves | effect of catalase on inhibitory potency against KDM5A (full-length FLAG-KDM5A; 0.01 mg/ml catalase): did not affect the inhibitory potency | IC50 (full-length FLAG-KDM5A; 0.05-50 μM compound, 1 hour reactions, read-out: average in vitro IC50 against KDM5A): 1320 nM | change of KDM5A IC50 with α-KG concentration (full-length FLAG-KDM5A; 16-fold range of α-KG, 150 nM H3K4me3 peptide, 50 μM Fe(II)): did not change significantly | IC50 (full-length FLAG-KDM5A; [2]): 2660 nM | fold less active against KDM5C (vs KDM5A) (KDM5C): ~5 fold
SMILES: C=CCn1c(S)nnc1CNC(=O)c1cccc(C)c1 [YUKA2, N-[(4-allyl-5-mercapto-4H-1,2,4-triazol-3-yl)methyl]-3-methylbenzamide]
cell activity by global H3K4 methylation changes [1]: but not YUKA2, was cell-active

hit in KDM5A inhibitor screen (full-length FLAG-KDM5A): among the active hits in the screen
SMILES: C[C@@](Cc1ccc(O)c(O)c1)(NN)C(=O)O [carbidopa, reference compound]

hit in KDM5A inhibitor screen (full-length FLAG-KDM5A): among the active hits in the screen
SMILES: N[C@@H](Cc1ccc(O)c(O)c1)C(=O)O [levodopa, reference compound]

Continued, compound first:

SMILES: CCn1c(S)nnc1CNC(=O)c1cccc(C)c1 [YU126648, N-((4-ethyl-5-mercapto-4H-1,2,4-triazol-3-yl)methyl)-3-methylbenzamide]
IC50 (full-length FLAG-KDM5A; [2]): 159 nM

SMILES: COc1cccc(Cc2nnc(S)n2-c2ccc(Cl)cc2)c1 [YU017175, 4-(4-chlorophenyl)-5-(3-methoxybenzyl)-4H-1,2,4-triazole-3-thiol]
IC50 (full-length FLAG-KDM5A; [2]): 57 nM

SMILES: Cc1ccc(-n2sc3ccccc3c2=O)cc1 [PBIT, 2-4(4-methylphenyl)-1,2-benzisothiazol-3(2H)-one, reference compound]
hit in KDM5A inhibitor screen (full-length FLAG-KDM5A): among the active hits in the screen

SMILES: Cc1cccc(-n2c(C)nnc2S)c1 [YU128402, 5-methyl-4-(m-tolyl)-4H-1,2,4-triazole-3-thiol]
IC50 (full-length FLAG-KDM5A; [2]): 79 nM

SMILES: COc1cccc(Cc2nnc(S)n2Cc2ccco2)c1 [YU017176, 4-(furan-2-ylmethyl)-5-(3-methoxybenzyl)-4H-1,2,4-triazole-3-thiol]
IC50 (full-length FLAG-KDM5A; [2]): 1760 nM

SMILES: C=CCn1c(S)nnc1-c1cccnc1 [YU125526, 4-allyl-5-(pyridin-3-yl)-4H-1,2,4-triazole-3-thiol]
IC50 (full-length FLAG-KDM5A; [2]): 197 nM

SMILES: O=C(O)c1ccnc(C(=O)O)c1 [2,4-PDCA, 2,4-pyridinedicarboxylic acid, reference compound]
hit in KDM5A inhibitor screen (full-length FLAG-KDM5A): among the active hits in the screen
